Test results as given in patent US20110190155A1 (Korea Institute of Science and Technology, priority 2007, published 2011).

Columns and labels:
[1] = cited from earlier work
in vitro = format: cell-based; details: human
Protocol: BEAS-2B (CRL-9609, ATCC, USA), a human bronchial epithelial cell line, was cultured in a T 75 flask containing DMEM (Gibco-BRL, USA) supplemented with 10% FBS at the concentration of 5×10^5 cells/ml. […] The concentration of the vehicle was less than 0.1% in every experiment.
MTT assay with the BEAS-2B cell line was performed according to the method of Mossman et al (J. Immunol. Methods, 65, 55-63, 1983). […] 48 hours later, MTT (3-[4,5-dimethylthiazol-2-yl]-2,5-diphenyltetra zolium bromide) 5 mg/ml was added at the concentration of 5 mg/ml, followed by culture at 37° C. for 3 hours. Then, medium was eliminated and generated formazan crystal was dissolved in 500 μl of DMSO. The solution was aliquoted in a 96 well-plate and OD540 was measured.

[2] = patients treated with amiodarone

Protocol for BEAS-2B cells: Total RNA was extracted from the cells using trizol reagent (Invitrogen life technologies, USA) according to the manufacturer's instruction and the extracted RNA was purified by using RNeasy mini kit (Qiagen, USA). The genomic DNA was eliminated during the purification of RNA using RNase-free DNase set (Qiagen, USA). The total RNA was quantified by spectrophotometer and purity was measured by Agilent 2100 Bioanalyzer (Agilent Technologies, USA).
30 μg of the total RNA and 2 μg (1 μg/μl) of oligo (dT) primer were mixed, followed by reaction for 10 minutes at 65° C. Then, the reaction mixture was put in ice, followed by annealing.
At this time, the two samples were mixed and purified by Microcon YM-30 column (Millipore, USA).
Hybridization and washing were performed according to the instruction of GeneCneck Co., Ltd. Hybridization was performed in a 62° C. oven for 12 hours. At this time, 44 k whole human genome oligo microarray (Agilent, USA) was used as a DNA microarray chip. […]
Scanning of the hybridized images on the slide was performed by using Genepix 4000B (Axon Instruments, USA). Fluorescence images of the chip washed to eliminate non-binding genes were obtained by laser fluorescence scanner. […] The scanned images were analyzed by GenePix 4.1 software (Axon Instruments, USA) to calculate the gene expression rate.

CCCCc1oc2ccccc2c1C(=O)c1cc(I)c(OCCN(CC)CC)c(I)c1 [amiodarone]
genes identified to be up-regulated (BEAS-2B cells; 44 genes out of 44,290 genes, Cy5/Cy3 more than 2.0 fold): 0.1% | genes identified to be down-regulated (BEAS-2B cells; 45 genes out of 44,290 genes, Cy5/Cy3 less than 0.5 fold): 0.10% | patients exhibiting boredom, fatigue, tremor, walking difficulty and peripheral neuropathy [1, 2]: 20-40% | patients showing gastrointestinal disorder, nausea, vomiting, constipation and loss of appetite [1, 2]: Approximately 25% | patients treated with amiodarone exhibiting side effects ([1]; patients): approximately 50% | IC20 at 48 h (in vitro): 29.4 µM
